Reference: patent publication US20070128217A1 (priority 2003, published 2007)

What was measured:
[1] = system: recombinant human anti-SARS-CoV antibody 03-018; format: binding; design: Binding of antibody 03-018 to linear peptides of the N protein of SARS-CoV Urbani / Binding of antibody 03-018 to looped/cyclic peptides of the N protein of SARS-CoV Urbani: unit not given here
[2] = system: rabbit serum obtained by immunizing a rabbit with the SARS-CoV strain Frankfurt 1; format: binding; design: Binding of a rabbit serum to linear peptides / Binding of a rabbit serum to looped peptides / Rabbit serum linear peptides / Rabbit serum looped peptides / Binding of a rabbit serum to linear peptides of protein N of SARS-CoV Urbani (Rabbit serum linear peptides) / Binding of a rabbit serum to looped/cyclic peptides of protein N of SARS-CoV Urbani (Rabbit serum looped peptides): unit not given here
[3] = system: control sera (pooled serum of ten healthy LUMC hospital workers; commercial negative donor pooled serum from the Dutch bloodbank); format: binding, human; design: Binding of Control serum LUMC to linear peptides / Binding of Control serum Blood-bank to linear peptides / Binding of Control serum LUMC to looped peptides / Binding of Control Serum Blood-Bank to Looped peptides / Binding of Control serum LUMC to linear peptides of the protein M of SARS-CoV Urbani / Binding of Control serum Blood-bank to linear peptides of the protein M of SARS-CoV Urbani / Binding of Control serum LUMC to looped peptides of the protein M of SARS-CoV Urbani / Binding of Control Serum Blood-Bank to Looped peptides of the protein M of SARS-CoV Urbani: unit not given here
[4] = system: antibodies in sera from SARS patients (sera 1a, 1b, 2, 6, 37, 62, London, SARS-yellow, SARS-green); format: binding, human; design: Binding of serum 6 to linear peptides of protein X1 of SARS-CoV Urbani / Binding of serum 37 to linear peptides of protein X1 of SARS-CoV Urbani / Binding of serum 6 to looped/cyclic peptide (PEPSCAN-ELISA) / Binding of serum 37 to looped/cyclic peptide (PEPSCAN-ELISA) / Binding of serum 37 to looped/cyclic peptides of protein X1 of SARS-CoV Urbani / Binding of serum 6 to linear peptides of protein X2 / Binding of serum 37 to linear peptides of protein X2 / Binding of serum 37 to looped/cyclic peptides of protein X2 of SARS-CoV Urbani / Binding of serum 6 to linear peptides of protein M of SARS-CoV Urbani / Binding of serum 37 to linear peptides of protein M of SARS-CoV Urbani / Binding of serum 6 to looped/cyclic peptides of protein M of SARS-CoV Urbani / Binding of serum 37 to looped/cyclic peptides of protein M of SARS-CoV Urbani / Binding of serum 6 to linear peptides of protein X3 of SARS-CoV Urbani / Binding of serum 37 to linear peptides of protein X3 of SARS-CoV Urbani / Binding of serum 37 to looped/cyclic peptides of protein X3 of SARS-CoV Urbani / Binding of serum 6 to linear peptides of protein X4 of SARS-CoV Urbani / Binding of serum 37 to linear peptides of protein X4 of SARS-CoV Urbani / Binding of serum 37 to looped/cyclic peptides of protein X4 of SARS-CoV Urbani / Binding of serum 6 to linear peptides of protein X5 of SARS-CoV Urbani / Binding of serum 37 to linear peptides of protein X5 of SARS-CoV Urbani / Binding of serum 37 to looped/cyclic peptides of protein X5 of SARS-CoV Urbani / Binding of serum 6 to linear peptides of protein N of SARS-CoV Urbani / Binding of serum 37 to linear peptides of protein N of SARS-CoV Urbani / Binding of serum 6 to linear peptide (PEPSCAN-ELISA) / Binding of serum 1a to looped/cyclic peptides of protein N of SARS-CoV Urbani / Binding of serum 1b to looped/cyclic peptides of protein N of SARS-CoV Urbani / Binding of serum 2 to looped/cyclic peptides of protein N of SARS-CoV Urbani / Binding of serum 6 to looped/cyclic peptides of protein N of SARS-CoV Urbani / Binding of serum 37 to looped/cyclic peptides of protein N of SARS-CoV Urbani / Binding of serum 62 to looped/cyclic peptides of protein N of SARS-CoV Urbani / Binding of serum London to looped/cyclic peptides of protein N of SARS-CoV Urbani / Binding of serum SARS-green to looped/cyclic peptides of protein N of SARS-CoV Urbani: unit not given here

Q: KKSAAEASKKPRQKR was tested. Which “Binding of antibody 03-018 to linear peptides of the N protein of SARS-CoV Urbani” value [1] did it give?
A: 0.1

Q: And the “Binding of antibody 03-018 to looped/cyclic peptides of the N protein of SARS-CoV Urbani” value [1]?
A: 0.2

Q: What about the “Binding of a rabbit serum to linear peptides of protein N of SARS-CoV Urbani (Rabbit serum linear peptides)” value [2] of the same sequence?
A: 0.4

Q: And the “Binding of a rabbit serum to looped/cyclic peptides of protein N of SARS-CoV Urbani (Rabbit serum looped peptides)” value [2]?
A: 0.8

Q: What about the “Binding of Control Serum Blood-Bank to Looped peptides” value [3] of the same sequence?
A: 0.5

Q: And the “Binding of Control serum Blood-bank to linear peptides” value [3]?
A: 1.0

Q: What about the “Binding of Control serum LUMC to linear peptides” value [3] of the same sequence?
A: 1.0

Q: What about the “Binding of Control serum LUMC to looped peptides” value [3] of the same sequence?
A: 0.5

Q: And the “Binding of serum 1a to looped/cyclic peptides of protein N of SARS-CoV Urbani” value [4]?
A: 0.2

Q: What about the “Binding of serum 1b to looped/cyclic peptides of protein N of SARS-CoV Urbani” value [4] of the same sequence?
A: 0.1

Q: What about the “Binding of serum 2 to looped/cyclic peptides of protein N of SARS-CoV Urbani” value [4] of the same sequence?
A: 0.3

Q: And the “Binding of serum 6 to looped/cyclic peptides of protein N of SARS-CoV Urbani” value [4]?
A: 0.2

Q: What about the “Binding of serum 37 to looped/cyclic peptides of protein N of SARS-CoV Urbani” value [4] of the same sequence?
A: 0.5

Q: What about the “Binding of serum 62 to looped/cyclic peptides of protein N of SARS-CoV Urbani” value [4] of the same sequence?
A: 0.3

Q: What about the “Binding of serum London to looped/cyclic peptides of protein N of SARS-CoV Urbani” value [4] of the same sequence?
A: 0.4

Q: What about the “Binding of serum SARS-green to looped/cyclic peptides of protein N of SARS-CoV Urbani” value [4] of the same sequence?
A: 0.2

Q: What about the “Binding of serum SARS-yellow to looped/cyclic peptides of protein N of SARS-CoV Urbani” value [4] of the same sequence?
A: 0.3

Q: What about the “Recognition of the peptide by sera of SARS-CoV infected individuals, and form (linear, looped/cyclic) in which it is recognized” value [4] of the same sequence?
A: recognized in linear form

Q: For KQPTVTLLPAADMDD, which “Binding of antibody 03-018 to linear peptides of the N protein of SARS-CoV Urbani” value [1] is on record?
A: 0.1

Q: What about the “Binding of antibody 03-018 to looped/cyclic peptides of the N protein of SARS-CoV Urbani” value [1] of the same sequence?
A: 0.2

Q: What about the “Binding of a rabbit serum to linear peptides of protein N of SARS-CoV Urbani (Rabbit serum linear peptides)” value [2] of the same sequence?
A: 0.1

Q: And the “Binding of a rabbit serum to looped/cyclic peptides of protein N of SARS-CoV Urbani (Rabbit serum looped peptides)” value [2]?
A: 0.1

Q: What about the “Control Serum Blood-Bank Looped peptides” value [3] of the same sequence?
A: 0.4

Q: What about the “Control serum Blood-bank linear peptides” value [3] of the same sequence?
A: 0.7

Q: And the “Control serum LUMC linear peptides” value [3]?
A: 0.7

Q: And the “Control serum LUMC looped peptides” value [3]?
A: 0.3

Q: And the “Binding of serum 1a to linear peptides of protein N of SARS-CoV Urbani” value [4]?
A: 0.3

Q: And the “Binding of serum 1a to looped/cyclic peptides of protein N of SARS-CoV Urbani” value [4]?
A: 0.3

Q: What about the “Binding of serum 1b to linear peptides of protein N of SARS-CoV Urbani” value [4] of the same sequence?
A: 0.2

Q: What about the “Binding of serum 1b to looped/cyclic peptides of protein N of SARS-CoV Urbani” value [4] of the same sequence?
A: 0.2

Q: And the “Binding of serum 2 to linear peptides of protein N of SARS-CoV Urbani” value [4]?
A: 0.2

Q: What about the “Binding of serum 2 to looped/cyclic peptides of protein N of SARS-CoV Urbani” value [4] of the same sequence?
A: 0.2

Q: What about the “Binding of serum 6 to linear peptides of protein N of SARS-CoV Urbani” value [4] of the same sequence?
A: 0.2

Q: And the “Binding of serum 6 to looped/cyclic peptides of protein N of SARS-CoV Urbani” value [4]?
A: 0.0

Q: What about the “Binding of serum 37 to linear peptides of protein N of SARS-CoV Urbani” value [4] of the same sequence?
A: 1.2

Q: What about the “Binding of serum 37 to looped/cyclic peptides of protein N of SARS-CoV Urbani” value [4] of the same sequence?
A: 0.4

Q: What about the “Binding of serum 62 to linear peptides of protein N of SARS-CoV Urbani” value [4] of the same sequence?
A: 0.8

Q: And the “Binding of serum 62 to looped/cyclic peptides of protein N of SARS-CoV Urbani” value [4]?
A: 0.3

Q: And the “Binding of serum London to linear peptides of protein N of SARS-CoV Urbani” value [4]?
A: 0.6

Q: What about the “Binding of serum London to looped/cyclic peptides of protein N of SARS-CoV Urbani” value [4] of the same sequence?
A: 0.2

Q: What about the “Binding of serum SARS-green to linear peptides of protein N of SARS-CoV Urbani” value [4] of the same sequence?
A: 2.4

Q: And the “Binding of serum SARS-green to looped/cyclic peptides of protein N of SARS-CoV Urbani” value [4]?
A: 0.6

Q: What about the “Binding of serum SARS-yellow to linear peptides of protein N of SARS-CoV Urbani” value [4] of the same sequence?
A: 1.1

Q: And the “Binding of serum SARS-yellow to looped/cyclic peptides of protein N of SARS-CoV Urbani” value [4]?
A: 0.3

Q: How did the “Binding of antibody 03-018 to linear peptides of the N protein of SARS-CoV Urbani” value [1] turn out when KQYNVTQAFGRRGPE was run?
A: 0.1

Q: What about the “Binding of antibody 03-018 to looped/cyclic peptides of the N protein of SARS-CoV Urbani” value [1] of the same sequence?
A: 0.1

Q: And the “Recognition of the peptide by the rabbit serum” value [2]?
A: recognized

Q: What about the “Binding of Control Serum Blood-Bank to Looped peptides” value [3] of the same sequence?
A: 0.5

Q: And the “Binding of Control serum Blood-bank to linear peptides” value [3]?
A: 0.6

Q: What about the “Binding of Control serum LUMC to linear peptides” value [3] of the same sequence?
A: 0.7

Q: And the “Binding of Control serum LUMC to looped peptides” value [3]?
A: 0.5

Q: What about the “Binding of serum 1a to linear peptide (PEPSCAN-ELISA)” value [4] of the same sequence?
A: 0.3

Q: And the “Binding of serum 1a to looped/cyclic peptides of protein N of SARS-CoV Urbani” value [4]?
A: 0.0

Q: And the “Binding of serum 1b to linear peptide (PEPSCAN-ELISA)” value [4]?
A: 0.1

Q: And the “Binding of serum 1b to looped/cyclic peptides of protein N of SARS-CoV Urbani” value [4]?
A: 0.0

Q: What about the “Binding of serum 2 to linear peptide (PEPSCAN-ELISA)” value [4] of the same sequence?
A: 0.1

Q: What about the “Binding of serum 2 to looped/cyclic peptides of protein N of SARS-CoV Urbani” value [4] of the same sequence?
A: 0.1

Q: What about the “Binding of serum 6 to linear peptide (PEPSCAN-ELISA)” value [4] of the same sequence?
A: 0.2

Q: What about the “Binding of serum 6 to looped/cyclic peptides of protein N of SARS-CoV Urbani” value [4] of the same sequence?
A: 0.2

Q: And the “Binding of serum 37 to linear peptide (PEPSCAN-ELISA)” value [4]?
A: 0.6

Q: What about the “Binding of serum 37 to looped/cyclic peptides of protein N of SARS-CoV Urbani” value [4] of the same sequence?
A: 0.0

Q: And the “Binding of serum 62 to linear peptide (PEPSCAN-ELISA)” value [4]?
A: 0.7

Q: And the “Binding of serum 62 to looped/cyclic peptides of protein N of SARS-CoV Urbani” value [4]?
A: 0.0

Q: And the “Binding of serum London to linear peptide (PEPSCAN-ELISA)” value [4]?
A: 0.5

Q: And the “Binding of serum London to looped/cyclic peptides of protein N of SARS-CoV Urbani” value [4]?
A: 0.2

Q: What about the “Binding of serum SARS-green to linear peptide (PEPSCAN-ELISA)” value [4] of the same sequence?
A: 0.3

Q: What about the “Binding of serum SARS-green to looped/cyclic peptides of protein N of SARS-CoV Urbani” value [4] of the same sequence?
A: 0.4

Q: What about the “Binding of serum SARS-yellow to linear peptide (PEPSCAN-ELISA)” value [4] of the same sequence?
A: 0.6

Q: And the “Binding of serum SARS-yellow to looped/cyclic peptides of protein N of SARS-CoV Urbani” value [4]?
A: 0.0
